From patent US11241501B2, “Anticancer prodrug for overcoming drug resistance” (Korea University Research and Business Foundation, priority 2018, dated 2022)

Assays:
[1] = tested on: HepG2 cells; test: Confocal intracellular localization with MitoTracker; assay type: cell-based, human; details: HepG2, 5 μM, 24 hr
Procedure: HepG2 cells treated with each compound (5 μM, 24 hr) were co-stained with the mitochondrial marker MitoTracker (green). Boxed regions show co-localization of the test compounds and probe within the mitochondria. […] Experiments were carried out in triplicate and the data shown represent means±SD. **p<0.01. […] HepG2 cells were incubated with BNPP (100 μM) for 2 hr prior to C1 treatment. **p<0.01. […] Cleaved caspase-3 and PARP-1 levels were examined to assess apoptosis induction. C, cleaved.
Cells were seeded on glass chamber slides (Nalgene Nunc) followed by probe treatment. After 48 h, the cells were fixed with 4% formaldehyde, and blocked with 2% bovine serum albumin-PBS for 30 min. The mitochondria were stained using MitoTracker™ Green FM (Invitrogen, USA) for 30 min. Fluorescent images were obtained using a confocal laser scanning microscope (Carl Zeiss MicroImaging, Inc., Germany).

[2] = Cell fractionation assay, mitochondria-to-nucleus trafficking; assay type: cell-based; details: after treatment with C1
Procedure: (§1) Fluorescence intensities were measured with SpectraMAX 13. Data represent means±SD. **p<0.01. […] Data represent means±SD. **[…]. […] Data represent the mean±SD (n=3 experimental replicates). *p<0.05, **p<0.01. […] MCF7/Dox cells were treated with C1 or C3 as indicated, and the cytosolic (C) and mitochondrial (M) fractions were subjected to immunoblot assay. COX-IV and tubulin were used as markers for the mitochondria and cytosol fractions, respectively.
Separation of cytosolic and mitochondrial fractions was performed using the Mitochondria Isolation Kit (Thermo Scientific, USA). Briefly, the cells were washed with cold PBS and lysed by 5-cycle freeze-thawing in Mitochondria Isolation Reagent A buffer, containing 10 mM phenylmethylsulfonyl fluoride (PMSF). After incubation on ice for 10 min and the addition of Mitochondria Isolation Reagent B buffer, the lysates were centrifuged at 700×g for 10 min following inverting by treating with Mitochondria Isolation Reagent C buffer. The supernatant was transferred to a new tube, centrifuged at 12 000×g for 15 min at 4° C., and collected as the cytosolic fraction. After adding […] of Mitochondria Isolation Reagent C, the pellet was centrifuged at 12 000×g for 5 min and collected as the mitochondrial fraction.

[3] = tested on: MCF7/Dox cells; test: Cytochrome c release from mitochondria, immunoblot; assay type: cell-based, human
Procedure: as §1
Immunoblot analyses were performed using antibodies specific for phosphorylated serine 293 PDH-EI (ab92696), p21^Waf1 (sc-397), cleaved PARP (5625), cleaved caspase-3 (9664), COX-IV (4850), and Cytochrome c (4280). They were purchased from Abcam (Cambridge, UK), Santa Cruz Biotechnology (Texas, USA) or Cell Signaling Technology (Massachusetts, USA). Anti-tubulin antibodies were obtained from Sigma-Aldrich (St. Louis, USA). Briefly, cells were washed twice in ice-cold PBS and lysed in a radioimmunoprecipitation assay buffer containing 50 mM Tris/HCl (pH 7.5), 150 mM NaCl, 0.1% sodium dodecyl sulfate (SDS), 1% Triton X-100, 1% sodium deoxycholate, and protease inhibitor mixture. After sonification, the lysate was centrifuged, and the supernatant was recovered and loaded onto a 12% SDS-polyacrylamide gel for electrophoresis. […]

[4] = tested on: MCF7/Dox cells; test: Colony formation assay; assay type: cell-based, human; details: 10 days
Procedure: as §1
Cells were seeded in 24 well plates at 2×10^5 cells per well and were allowed to adhere for at least 24 h, growth medium was replaced with medium containing C1 or its analogues at the indicated concentrations and times, and cell viability was assessed via the WST-1 assay (Roche Diagnostics, Laval, QC, Canada). For the colony formation assay, cells were seeded in 6-well plates. After 24 h, cells were maintained in the presence of each probe or vehicle dimethyl sulfoxide (DMSO) for 10 days. Colonies were fixed with methanol for 10 min and stained with 0.05% crystal violet in 20% ethanol.

[5] = tested on: MCF7/Dox cells; test: Cell death assay, Annexin V flow cytometry; assay type: cell-based, human; details: 5 μM
Procedure: MCF-7/Dox cells (8×10^5 cells) were seeded in 60 mm dishes and cultured for 24 h. The cells were treated with 5 μM compound C1, C3, DCA and/or doxorubicin for 48 h. After washing and centrifugation, the harvested cells were stained with the Annexin V/PI Apoptosis Detection kit (BD Biosciences, USA) for 1 min at room temperature. The apoptotic cells were then quantified on a FACSCalibur™ flow cytometer and analyzed using the CELLQUEST™ software (BD Biosciences).

[6] = tested on: MCF7 xenograft tumors; test: Xenograft tumor study; assay type: in vivo; details: mice, C1 15 mg/kg/d, Dox 2 mg/Kg/d + DCA 50 mg/Kg/d, once every four days
Procedure: (§2) Data represent the mean±SD. *p<0.05.
(§3) To assess tumor target specificity and the organ distribution of C1 in vivo and ex vivo, MCF7 and MCF7/Dox cells were injected subcutaneously into mice. When tumor growth reached a detectable size, the mice were treated with C1 (15 mg/kg/d), doxorubicin (2 mg/Kg/d)+DCA (50 mg/Kg/d), or vehicle (DMSO) by i.v. injection once every 4 days for 30 days. After 15 days of treatment, the animals were euthanized via CO2 asphyxiation. The xenograft tumors were excised and photographed. In vivo fluorescence images of the mice were recorded and quantified using a Maestro2 instrument (excitation and emission wavelengths: 500 and 650 nm, respectively). The fluorescence images and auto-fluorescence were then deconvoluted using the software provided with the instrument (Maestro software ver.2.4, CRi, Woburn, Mass., USA) using the multiexcitation spectral analysis function.
(§4) Five-week-old immunodeficient nude mice (nu/nu) mice (Orient Bio, Inc.) were maintained in pressurized ventilated cages under conditions of repeated controlled illumination (12 h dark; 12 h light) with ad libitum access to sterilized water and food (Cat no: 1314Fort, ALTROMIN company, Germany). MCF-7/Dox cells (1×10^7) in […] PBS were injected subcutaneously into each nude mouse. […] Tumor growth was monitored periodically, and the tumor volume (V) was calculated by using V=½× length×(width)^2. […]

[7] = tested on: MCF7/Dox xenograft tumors; test: Xenograft tumor study; assay type: in vivo; details: mice, C1 15 mg/kg/d, Dox 2 mg/Kg/d + DCA 50 mg/Kg/d, once every four days
Procedure: as §2, §3, §4

[8] = tested on: MCF7 and MCF7/Dox tumors; test: In vivo and ex vivo fluorescent imaging; details: mice bearing MCF7 and MCF7/Dox tumors
[9] = tested on: MCF7 and MCF7/Dox cells; test: Mitochondrial localization in MCF7 and MCF7/Dox cells; assay type: cell-based, human
Excerpt: Mito-tracker (green) was utilized to show the mitochondria;

COc1cccc2c1C(=O)c1c(O)c3c(c(O)c1C2=O)C[C@@](O)(C(=O)CO)C[C@@H]3OC1C[C@H](NC(=O)OC(Cc2cn(CCCCCC[P+](c3ccccc3)(c3ccccc3)c3ccccc3)nn2)c2ccc(NC(=O)C(Cl)Cl)cc2)[C@H](O)[C@H](C)O1.[Br-] (stereo partly drawn) [C1]
intracellular (mitochondrial) localization [1]: located predominantly within the mitochondria | time for released Dox to translocate to the nucleus [2]: approximately 2 hr | cytochrome c release, cleavage of caspase-3 and PARP-1, decrease in cell viability [3]: induces cytochrome c release from the mitochondria | colony-forming ability [4]: strong inhibitory effect | apoptosis by Annexin V flow cytometry [5]: promotes both early and late apoptosis | reduction in the tumor volume [6]: approximately 78% | reduction in the tumor volume [7]: ~74% | tumor specificity of Dox accumulation (fluorescence imaging of mice and dissected organs) [8]: highly tumor-specific accumulation of Dox | mitochondrial localization [9]: exhibited mitochondrial localization in both MCF7 and MCF7/Dox cells
